Experimental data taken from patent publication US20120115742A1, “METHODS FOR IDENTIFICATION” (Cambridge Enterprise Limited, priority 2009, published 2012).
Read-outs that look alike come from different tables or passages of the source. Each block holds one compound with its values, some of them ahead of it.

Key:
THP-1 cells = assay: MCP-1 induced THP-1 cell migration (Transwell/ChemoTx); details: for “Classical”:“BSCI” potency ratio, Human: THP-1 migration ED50 versus Panc-2H4 insulin ED50; for RATIO: Table 4, migration ED50 versus insulin ED50
Procedure: Leukocyte migration was measured using the 96-well format micro Transwell® assay system from Neuroprobe (Gaithersburg, Md., USA). In principle, this assay consists of two chambers separated by a porous membrane. The chemoattractant is placed in the lower compartment and the cells are placed in the upper compartment.
First, the cell suspension to be placed in the upper compartment was prepared. The THP-1 cells were pelleted by centrifugation (770×g; 4 mins) and washed with Geys Balanced Salt Solution with 1 mg/ml BSA (GBSS+BSA). This wash was then repeated, and the cells re-pelleted before being resuspended in a small volume of GBSS+BSA for counting, for example using a standard haemocytometer.
This ensured that there were 100,000 THP-1 cells in each 25 μl of the solution to be placed in the upper chamber of the plate.
To the third pot, GBSS+BSA plus vehicle as appropriate was added so that the volumes in three pots are equal, acting as a control.
Next, the chemoattractant solution to be placed in the lower compartment was prepared. […] This solution was divided into three pots, as for the cell suspension. To one pot, the BSCI was added to the same final concentration as was added to the cell suspension, in the second pot the BSCI and the sstr2 antagonist were both added at the same concentration as previously added to the cell suspension, while to the remaining pot GBSS+BSA plus vehicle as appropriate was added so that the volumes in the three pots were equal.
Once the chemoattractant solutions for the lower wells and cell solutions for the upper chambers were prepared, the migration chamber was assembled. 29 μl of the appropriate chemoattractant solution was placed into the lower well of the chamber. Assays were performed with at least triplicate determinations of each condition. Once all the lower chambers were filled, the porous membrane was applied to the chamber in accordance with the manufacturer's instructions. Finally, 25 μl of the appropriate cell solution was applied to each upper chamber. A plastic lid was placed over the entire apparatus to prevent evaporation.
The assembled chamber was incubated at 37° C., 5% CO2, for 2 hours.
At the end of the incubation, the liquid cell suspension was gently removed from the upper chamber, 20 μl of ice-cold 20 mM EDTA in PBS was added to the upper chamber, and the apparatus was incubated at 4° C. for 15 mins. This procedure caused any cells adhering to the underside of the membrane to fall into the lower chamber.
After this incubation the filter was carefully flushed with GBSS+BSA to wash off the EDTA, and then the filter was removed.
The number of cells migrated into the lower chamber under each condition can then be determined by a number of methods, including direct counting, labelling with fluorescent or radioactive markers or through the use of a vital dye. Typically, we utilised the vital dye MTT. 3 μl of stock MTT solution were added to each well, and then the plate was incubated at 37° C. for 1-2 hours during which time dehydrogenase enzymes within the cells converted the soluble MTT to an insoluble blue formazan product that could be quantified spectrophotometrically.
In parallel, an 8-point standard curve was set up. Starting with the number of cells added to each upper chamber (100,000) and going down in 2-fold serial dilutions in GBSS+BSA, the cells were added to a plate in 25 with 3 μl of MTT stock solution added. The standard curve plate was incubated along side the migration plate. At the end of this incubation, the liquid was carefully removed from the lower chambers, taking care not to disturb the precipitated formazan product.
The MCP-1 stimulated migration was determined by subtracting the average number of cells that reached the lower compartment in wells where no MCP-1 was added from the average number of cells that reached the lower compartment where MCP-1 was present at 25 ng/ml.

TNF-alpha = assay: Sub-lethal endotoxemia model, serum TNF-alpha after LPS; assay type: in vivo, mouse; details: very high / highest doses, 2 hours post LPS
Procedure: We selected the sub-lethal endotoxemia model in mouse, because this has been well characterised in our laboratory (see for example Fox et al. (2002) J. Med. Chem. 45:360-70; Fox et al. (2005) J. Med. Chem. 48:867-74). The extent of systemic inflammation in response to a single intraperitoneal injection of bacterial lipopolysaccharide (LPS) can be estimated by measuring serum TNF-alpha 2 hours post challenge.
Methods: Mice (CD1 strain; adult males; 6 per group) were treated with BSCI (in an appropriate vehicle) or with vehicle alone by an appropriate route. […] Simultaneously, one set of mice at each BSCI concentration received BIM 23627 at 4 mg/animal (120 mg/kg) by sub-cutaneous injection (a treatment condition known to suppress classical sstr2-mediated signalling, such as GH release, in rats; Tulipano et al. (2002) 143:1218-24). Between 30 mins and 1 hour after dosing (a period when a maximal plasma concentration of BSCI has been achieved), the inflammatory challenge was elicited by intraperitoneal injection of 750 μg of LPS (Sigma; L4130 lot#024K4077; 900,000 EU/mg).
After a further 2 hours, the animals were sacrificed by CO2 asphyxiation, and blood was drawn by cardiac puncture. Serum was prepared by conventional methods, and the level of TNF-alpha in serum was measured using an ELISA (R&D Systems; Murine Quantikine code# MTA00) performed in accordance with the manufacturer's instructions.

Panc-2H4 cells = assay: Human Panc-2H4 insulin suppression assay; assay type: cell-based; details: for Human Panc-2H4 insulin suppression assay Max effect: suppression compared to vehicle
Text: (§1) Two different assays for “classical” sstr2 functions were adopted: (1) cultured foetal rat pituitary cells secreted growth hormone which is inhibited by sstr2 agonists in a dose-dependent fashion and (2) selected glucose-sensitive sub-clones of the human Panc-1 cell line secrete insulin which is inhibited by sstr2 agonists in a dose-dependent fashion.
Glucose-sensitive sub-clones of the human Panc-1, a cell line derived from a pleiomorphic epithelioid carcinoma of the exocrine pancreas, were obtained essentially as described by Hamil et al. (2008) Biomed. Sci. Instrum. 44:441-6. Briefly, Panc-1 cells were subcultured in 24 well plates, and the medium was supplemented with an additional 5% glucose. […] The resulting sub-lines were then tested for glucose sensitivity by preparing wells of a 96-well plate (5×10^4 cells per well) which were then exposed to cultured medium containing a range of glucose concentrations (low glucose DMEM, DMEM, DMEM+1% glucose, DMEM+2.5% glucose and DMEM+5% glucose). After 24 hrs incubation, the conditioned medium was collected and assayed for insulin secretion by ELISA (Linco; cat# EZHI-14K) in accordance with the manufacturer's instructions. […] Further 96 well plates were prepared using Panc-2H4 (5×10^4 cells per well) in DMEM. After 24 hrs, the medium was switched to DMEM+5% glucose containing various test agents at various concentrations (triplicate wells per condition). After a further 24 hrs, the conditioned medium was harvested and the concentration of insulin was determined by ELISA as described above.
(§2) Results were reported as the mean SD, expressed as the fold change from cells in the presence of vehicle only.

fetal rat pituicytes = assay: Rat pituicyte GH suppression assay; assay type: cell-based; details: Table 3; suppression compared to vehicle
Text: as §1
Methods: Cultures of fetal rat pituicytes were established exactly as previously described (Murray et al. (2004) J. Clin. Endocrinol. Metab. 89:3027-32) by enzymatic dispersion. After 48 hrs in low glucose DMEM plus 10% FCS, cells in 48 well plates (5×10^4 cells per well) were washed for 4 hrs in serum-free DMEM and then incubated with test agents at various concentrations for a further 24 hrs in serum-free DMEM. At the end of this period, the conditioned medium was harvested, any cell debris removed by centrifugation and assayed for […] using a commercially available ELISA (Linco; cat# EZRMGH-45K) in accordance with the manufacturer's instructions.
as §2

sstr2 = target: T1, sstr2 (Homo sapiens, UniProt P30874); assay: [3H]-BN83250 equilibrium binding to THP-1 cells (Scatchard/competition)
T1 construct: with 1×10^6 THP-1 cells in Gey's Balanced Salt Solution, 10 nM [^3H]-BN83250; endogenous in cells; host or cells: THP-1 cells (intact cells, 4 °C)
Procedure: Methods: [^3H]-BN83250 was synthesesized from (S,E)-3-(2′,2′-dimethyldodec-4′-enoylamino)-caprolactam by catalytic hydrogenation using tritium gas over a palladium catalyst (CRB Ltd, Cleveland, UK), yielding the tritiated product at a concentration of 270 μM in ethanol with a specific activity of 220Ci/mmol. The (S,E)-3-(2′,2′-dimethyldodec-4′-enoylamino)-caprolactam was prepared as follows: (S,S)-3-amino-caprolactam hydro-pyrrolidine-5-carboxylate (10 mmol) and Na2CO3 (30 mmol) in water (30 ml) were added to a solution of 2,2-dimethyl-dodec-4-enoyl chloride (10 mmol) in dichloromethane (30 ml) at ambient temperature and the reaction was stirred for 12 hours. The organic layer was then separated and the aqueous phase was extracted with additional dichloromethane (2×25 ml). The combined organic layers were dried over Na2CO3 and reduced in vacuo. The residue was purified by silica column chromatography (1:1 EtOAc:hexanes to EtOAc) to give (S,E)-3-(2′,2′-dimethyl-dodec-4′-enoyl)amino-caprolactam as a colourless oil (2.12 g, 63%). The radiolabelled compound was stored in the dark at 4° C. until required. Prior to use the specific activity was adjusted by addition of unlabelled BN83250.
For the analysis of binding, individual reactions were set up (in triplicate for each condition), with 1×10^6 THP-1 cells in Gey's Balanced Salt Solution, 10 nM [^3H]-BN83250 (at 50 Ci/mmol) and various concentrations of (S)-3(2′2′-dimethylpropionoylamino)-tetrahydropyridin-2-one (10 pM to 10 μM). Excess (100 μM) unlabelled BN83250 was used to determine the level of non-specific binding. After 2 hours at 4° C. (conditions previously shown to achieve equilibrium binding, and which prevent uptake of the radioligand that would result in an over-estimate of binding) excess label was washed away by centrifugation (3 washes with 5 ml of Gey's Balanced Salt Solution) and the bound radioactivity was determined by scintillation counting of the solubilised cell pellet.
Hits from this assay were confirmed using conventional Scatchard analysis, exactly as described in Example 4 above.

[1] = tested on: rat peripheral blood leukocytes; assay: Rat chemokine-induced PBMC migration assay; assay type: cell-based
Procedure: Similarly, where human Panc-2H4 cells are used to determine the effect of agents on classical sstr2 targets, the result is compared with the effect of the same agents on chemokine-induced migration of human THP-1 cells. […] For this reason, the ratio of “classical” to “BSCI” activity in Table 3 is calculated separately for rat and human.

[2] = target: type 2 somatostatin receptor (sstr2), rat (rat) (UniProt P30680); assay: cell-based or functional assay
[3] = target: type 2 somatostatin receptor (sstr2), human (human) (UniProt P30874); assay: cell-based or functional assay
[4] = Table 4, 0.01-1,000 nM, 1% DMSO, read-out: Panc-2H4 insulin suppression assay (“classical” target) ED50

Sequence of type 2 somatostatin receptor (sstr2), rat (rat) (P30680 whole entry): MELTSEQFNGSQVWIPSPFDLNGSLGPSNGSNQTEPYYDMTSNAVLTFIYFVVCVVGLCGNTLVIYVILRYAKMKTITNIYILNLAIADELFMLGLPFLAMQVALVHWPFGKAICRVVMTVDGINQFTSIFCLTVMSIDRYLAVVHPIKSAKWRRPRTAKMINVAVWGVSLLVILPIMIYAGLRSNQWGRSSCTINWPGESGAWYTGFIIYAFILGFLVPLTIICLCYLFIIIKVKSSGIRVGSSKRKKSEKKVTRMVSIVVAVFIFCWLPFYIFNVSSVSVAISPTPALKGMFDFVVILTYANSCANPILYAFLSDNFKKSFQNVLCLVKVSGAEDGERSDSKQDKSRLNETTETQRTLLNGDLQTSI
Sequence of type 2 somatostatin receptor (sstr2), human (human) (P30874 whole entry): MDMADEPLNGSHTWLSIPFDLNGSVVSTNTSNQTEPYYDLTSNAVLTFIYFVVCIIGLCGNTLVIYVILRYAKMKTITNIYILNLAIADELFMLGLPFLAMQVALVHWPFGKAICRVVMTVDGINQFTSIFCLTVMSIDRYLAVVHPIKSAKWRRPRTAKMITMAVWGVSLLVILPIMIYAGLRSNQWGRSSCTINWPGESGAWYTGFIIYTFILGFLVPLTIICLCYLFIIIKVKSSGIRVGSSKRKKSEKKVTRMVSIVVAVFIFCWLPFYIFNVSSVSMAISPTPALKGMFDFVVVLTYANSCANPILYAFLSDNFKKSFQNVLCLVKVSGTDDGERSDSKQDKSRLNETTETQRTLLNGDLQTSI
T1 sequence (P30874 whole entry): as above

Compound: SST-28: alternatively processed sst28 natural ligand
Max effect (maximum inhibition) (THP-1 cells; Table 2, at the highest dose tested (1-10 μM)): 40-60%

Compound: C[C@@H]1C[C@H]2[C@@H]3CCC4=CC(=O)C=C[C@]4(C)[C@@]3(F)[C@@H](O)C[C@]2(C)[C@@]1(O)C(=O)CO [dexamethasone]
inhibition of serum TNF-alpha (TNF-alpha): more than 90%

Compound: C[C@@H](c1c[nH]c2ccccc12)[C@@H](NC(=O)N1CCC(n2c(=O)[nH]c3ccccc32)CC1)C(=O)NC[C@@H]1CCC[C@H](CN)C1 [L-779,976]
Human Panc-2H4 insulin suppression assay Max effect (Panc-2H4 cells; Table 3): 40%
Panc-2H4 insulin suppression assay Max Effect (Panc-2H4 cells; Table 4): 40%
Panc-2H4 insulin suppression assay Max Effect (Panc-2H4 cells; Table 5): 40%
Rat pituicyte GH suppression assay Max effect (fetal rat pituicytes): 55%
“Classical”:“BSCI” potency ratio, Human (THP-1 cells): 27

EC50 (Panc-2H4 cells; [4]): > 1000 nM
Compound: CC(=O)NC(=O)C(NC(=O)N1CCC(n2c(=O)[nH]c3ccccc32)CC1)C(C)c1c[nH]c2ccccc12 (stereo not shown) [E]
Panc-2H4 insulin suppression assay Max Effect (Panc-2H4 cells; Table 4): <10%

Compound: CC1(C(=O)N[C@H]2CCCCNC2=O)CCCCC1 [(S)-3-(1′-methylcyclohexyl-1′-carbonylamino)-caprolactam]
competition with BN83250 binding to sstr2 (sstr2): compete with BN83250 binding to sstr2 to a similar extent

EC50 (Panc-2H4 cells; Table 3, read-out: Human Panc-2H4 insulin suppression assay ED50): > 1000 nM
Compound: O=C1NCCCC[C@@H]1NC(=O)C12CC3CC(CC(C3)C1)C2 [BN83470, (S)-3-(admantane-1′-carbonylamino)-caprolactam]
Human Panc-2H4 insulin suppression assay Max effect (Panc-2H4 cells; Table 3): <10%
inhibition of insulin secretion by Panc-2H4 (Panc-2H4 cells; highest concentrations tested): None of these agents inhibited insulin secretion
competition with BN83250 binding to sstr2 (sstr2): compete with BN83250 binding to sstr2 to a similar extent
Rat pituicyte GH suppression assay Max effect (fetal rat pituicytes): 56%
“Classical”:“BSCI” potency ratio, Rat ([1]; PBMC migration ED50 versus pituicyte GH ED50): 0.0008
Rat chemokine-induced PBMC migration assay Max effect ([1]; Table 3): 100%
“Classical”:“BSCI” potency ratio, Human (THP-1 cells): <0.00008
Human chemokine-induced THP-1 migration assay Max effect (THP-1 cells; Table 3): 100%

Compound: CC(c1c[nH]c2ccccc12)C(NC(=O)N1CC(=O)NC(=O)C1)C(=O)NCC1CCCC(CN)C1 (stereo not shown) [Compound B]
Panc-2H4 insulin suppression assay Max Effect (Panc-2H4 cells; Table 4): 52%
RATIO (THP-1 cells): 1.3

Compound: CC(c1c[nH]c2ccccc12)C(NC(=O)NC1CCCNC1=O)C(=O)NCC1CCCC(CN)C1 (stereo not shown) [Compound C]
Panc-2H4 insulin suppression assay Max Effect (Panc-2H4 cells; Table 4): 56%
RATIO (THP-1 cells): 0.02

Compound: CC(C)(C)C(=O)N[C@H]1CCCNC1=O
Hill Slope (sstr2; competition with [3H]-BN83250): approximately −1.0

EC50 (Panc-2H4 cells; [4]): > 1000 nM
Compound: NCC1CCCC(CNC(=O)C(Cc2ccccc2)NC(=O)N2CCC(n3c(=O)[nH]c4ccccc43)CC2)C1 (stereo not shown) [F]
Panc-2H4 insulin suppression assay Max Effect (Panc-2H4 cells; Table 4): <10%

Rat chemokine-induced PBMC migration assay ED50 [2]: 1.2 nM
Rat chemokine-induced PBMC migration assay Max effect [2]: 44%
Rat pituicyte GH suppression assay ED50 [2]: 0.17 nM
Rat pituicyte GH suppression assay Max effect [2]: 73%
Human Panc-2H4 insulin suppression assay ED50 [3]: 0.14 nM
Human Panc-2H4 insulin suppression assay Max effect [3]: 51%
Human chemokine-induced THP-1 migration assay ED50 [3]: 0.9 nM
Human chemokine-induced THP-1 migration assay Max effect [3]: 38%
Compound: somatostatin-28 (from UniProt P61278 89-116) (peptide)

Rat chemokine-induced PBMC migration assay ED50 [2]: 15 nM
Rat chemokine-induced PBMC migration assay Max effect [2]: 100%
Rat pituicyte GH suppression assay ED50 [2]: 550 nM
Rat pituicyte GH suppression assay Max effect [2]: 42%
Human Panc-2H4 insulin suppression assay ED50 [3]: > 1000 nM
Human Panc-2H4 insulin suppression assay Max effect [3]: < 10%
Human chemokine-induced THP-1 migration assay ED50 [3]: 6.9 nM
Human chemokine-induced THP-1 migration assay Max effect [3]: 100%
Compound: BIM58187 (peptide)

Compound: CC(=O)NC(CC(N)=O)C(=O)NC(C(=O)NCC1CCCC(CN)C1)C(C)c1c[nH]c2ccccc12 (mixture of isomers) [D]
Panc-2H4 insulin suppression assay Max Effect (Panc-2H4 cells; Table 4): 37%
